# Read-outs that look alike come from different tables or passages of the source.
# How the values were obtained:
# human α2C‐adrenoceptor [1] = molecular target: T1, human α2C‐adrenoceptor (Homo sapiens, UniProt P18825)
# T1 sequence (P18825 1-462): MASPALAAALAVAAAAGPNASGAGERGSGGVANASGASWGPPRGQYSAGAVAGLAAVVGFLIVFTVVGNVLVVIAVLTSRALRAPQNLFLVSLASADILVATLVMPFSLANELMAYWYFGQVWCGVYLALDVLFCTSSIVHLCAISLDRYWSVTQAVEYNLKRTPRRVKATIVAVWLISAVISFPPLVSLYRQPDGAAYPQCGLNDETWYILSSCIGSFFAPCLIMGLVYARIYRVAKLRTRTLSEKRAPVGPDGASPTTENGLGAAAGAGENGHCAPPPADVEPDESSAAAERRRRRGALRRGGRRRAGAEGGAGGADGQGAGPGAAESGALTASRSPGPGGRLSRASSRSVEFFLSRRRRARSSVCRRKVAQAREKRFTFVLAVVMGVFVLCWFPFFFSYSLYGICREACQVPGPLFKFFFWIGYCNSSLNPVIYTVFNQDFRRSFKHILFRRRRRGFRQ
# human α2C‐adrenoceptor [2] = molecular target: T1, human α2C‐adrenoceptor; assay: 3H‐rauwolscine whole cell binding in CHO‐α2C cells; design: expressed in transfected cells; host or cells: CHO-K1 with CRE-SPAP reporter
# human α2C‐adrenoceptor [3] = molecular target: T1, human α2C‐adrenoceptor; assay: ERK1/2‐phosphorylation in CHO‐α2C cells; type: cell-based; design: expressed in transfected cells; host or cells: CHO-K1 with CRE-SPAP reporter
# human α2A‐adrenoceptor [4] = molecular target: T2, human α2A‐adrenoceptor (Homo sapiens, UniProt P08913)
# T2 sequence (P08913 1-465): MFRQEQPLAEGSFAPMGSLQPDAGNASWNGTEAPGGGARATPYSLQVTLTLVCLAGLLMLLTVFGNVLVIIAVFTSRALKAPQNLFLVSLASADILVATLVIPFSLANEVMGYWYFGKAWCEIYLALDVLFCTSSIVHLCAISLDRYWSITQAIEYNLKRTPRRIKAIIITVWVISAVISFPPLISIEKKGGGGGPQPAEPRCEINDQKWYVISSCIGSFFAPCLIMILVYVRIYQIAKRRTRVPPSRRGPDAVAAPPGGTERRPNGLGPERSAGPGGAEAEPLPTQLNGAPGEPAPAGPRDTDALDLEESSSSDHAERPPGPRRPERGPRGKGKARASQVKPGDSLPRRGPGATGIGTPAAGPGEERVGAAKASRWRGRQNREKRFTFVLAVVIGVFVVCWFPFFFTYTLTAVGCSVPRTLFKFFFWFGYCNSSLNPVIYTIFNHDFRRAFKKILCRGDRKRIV
# human α2A‐adrenoceptor [5] = molecular target: T2, human α2A‐adrenoceptor; assay: ERK1/2‐phosphorylation in CHO‐α2A cells; type: cell-based; design: expressed in transfected cells; host or cells: CHO-K1 with CRE-SPAP reporter
# human α2A‐adrenoceptor [6] = molecular target: T2, human α2A‐adrenoceptor; assay: 3H‐rauwolscine whole cell binding in CHO‐α2A cells; design: expressed in transfected cells; host or cells: CHO-K1 with CRE-SPAP reporter
# [7] = CHO‐α2C cells, % inhibition from the 3 μM forskolin control, mean ± SEM
# [8] = CHO‐α2C cells, CRE‐SPAP production in the absence of forskolin
# [9] = CHO‐α2C cells, maximum response compared to 10 μM PDBu, mean ± SEM
structure (smiles),measurement,setting,value
Cc1sc(C)c2c1CCC=C2c1cnc[nH]1.O=C(O)/C=C\C(=O)O [T‐CG 1000],Log efficacy ratio (KD/IC50),human α2C‐adrenoceptor [1],−0.63
same,"% inhibition, CRE‐SPAP (with forskolin)",human α2C‐adrenoceptor [1]; [7],50.2 ± 5.1%
same,"Log EC50 (Gs), CRE‐SPAP (without forskolin)",human α2C‐adrenoceptor [1]; [8],No response
same,"Log IC50 (Gi), CRE‐SPAP (with forskolin)","human α2C‐adrenoceptor [1]; CHO‐α2C cells, inhibition of 3 μM forskolin‐stimulated CRE‐SPAP production, given as negative log IC50, mean ± SEM",−6.12 ± 0.05
same,Log KD,"human α2C‐adrenoceptor [2]; CHO‐α2C cells, 3H‐rauwolscine whole cell binding, given as negative log KD, mean only (SEM in Table 4)",−6.75
same,"% 10 μM PDBu, ERK1/2‐phosphorylation",human α2C‐adrenoceptor [3]; [9],87.5 ± 14.2%
same,"Log EC50, ERK1/2‐phosphorylation","human α2C‐adrenoceptor [3]; CHO‐α2C cells, given as negative log EC50, mean ± SEM",−7.05 ± 0.14
CCC1(c2cnc[nH]2)Cc2ccccc2C1 [Atipamezole],"Log EC50 (Gs), CRE‐SPAP (without forskolin)","human α2A‐adrenoceptor [4]; CHO‐α2A (cell line 1), absence of forskolin",No response
same,"Log IC50 (Gi), CRE‐SPAP (with forskolin)","human α2A‐adrenoceptor [4]; CHO‐α2A (cell line 1, 5830 fmol/mg protein), 3 μM forskolin",No response
same,"% inhibition, CRE‐SPAP (with forskolin)",human α2C‐adrenoceptor [1],15.8 ± 7.5%
same,IC50,human α2C‐adrenoceptor [1],0.2 µM
same,Log efficacy ratio (KD/IC50),human α2C‐adrenoceptor [1],−1.78
same,"Log EC50 (Gs), CRE‐SPAP (without forskolin)",human α2C‐adrenoceptor [1]; [8],No response
same,"% 10 μM PDBu, ERK1/2‐phosphorylation",human α2A‐adrenoceptor [5],42.4 ± 5.9%
same,EC50,"human α2A‐adrenoceptor [5]; CHO‐α2A, read-out: Log EC50, ERK1/2‐phosphorylation (converted)",0.0288 µM
same,"% 10 μM PDBu, ERK1/2‐phosphorylation",human α2C‐adrenoceptor [3],63.7 ± 8.3%
same,EC50,"human α2C‐adrenoceptor [3]; CHO‐α2C cells, given as negative log EC50, mean ± SEM, read-out: Log EC50, ERK1/2‐phosphorylation (converted)",0.00832 µM
C=CCc1ccccc1OC(C)C1=NCCN1 (stereo not shown) [Allyphenyline],"% inhibition, CRE‐SPAP (with forskolin)",human α2A‐adrenoceptor [4],50.6 ± 6.3%
same,"% inhibition, CRE‐SPAP (with forskolin)",human α2C‐adrenoceptor [1],66.8 ± 4.7%
same,IC50,human α2C‐adrenoceptor [1],0.0631 µM
same,"Log EC50 (Gs), CRE‐SPAP (without forskolin)",human α2C‐adrenoceptor [1],No response
same,Kd,human α2C‐adrenoceptor [2],0.214 µM
same,Kd,"human α2C‐adrenoceptor [2]; Log KD, CHO‐α2C",0.214 µM
same,"% 10 μM PDBu, ERK1/2‐phosphorylation",human α2A‐adrenoceptor [5],127.1 ± 13.0%
same,"% 10 μM PDBu, ERK1/2‐phosphorylation",human α2C‐adrenoceptor [3],134.5 ± 17.9%
same,EC50,human α2C‐adrenoceptor [3],0.0117 µM
COC(=O)[C@@H]1[C@H]2C[C@H]3c4[nH]c5ccccc5c4CCN3C[C@@H]2CC[C@@H]1O [yohimbine],"Schild slope (Gi), dexmedetomidine as agonist",human α2A‐adrenoceptor [4],1.11 ± 0.07
same,"Schild slope, inhibitory (Gi) component",human α2A‐adrenoceptor [4],1.00 ± 0.08
same,"Schild slope, stimulatory (Gs) component",human α2A‐adrenoceptor [4],0.92 ± 0.11
COc1ccc(OC)c(C(O)CNC(=O)CN)c1 (stereo not shown) [Midodrine],"% 10 μM PDBu, ERK1/2‐phosphorylation, response at 100 μM agonist","human α2A‐adrenoceptor [5]; CHO‐α2A, response at 100 μM",101.0 ± 15.5%
same,"% 10 μM PDBu, ERK1/2‐phosphorylation","human α2C‐adrenoceptor [3]; CHO‐α2C cells, response at 100 μM ligand (no EC50 given) compared to 10 μM PDBu",80.9 ± 15.6%
COc1ccc(CC(C)NCC(O)c2ccc(O)c(NC=O)c2)cc1 (stereo not shown) [Formoterol],"Log EC50 (Gs), CRE‐SPAP (without forskolin)",human α2A‐adrenoceptor [4],No response
same,"Log IC50 (Gi), CRE‐SPAP (with forskolin)",human α2A‐adrenoceptor [4],No response
same,"Log EC50 (Gs), CRE‐SPAP (without forskolin)",human α2C‐adrenoceptor [1],No response
same,"Log IC50 (Gi), CRE‐SPAP (with forskolin)",human α2C‐adrenoceptor [1],No response
same,IC50,human α2A‐adrenoceptor [6],> 100 µM
same,IC50,"human α2A‐adrenoceptor [6]; read-out: IC50 in binding, CHO‐α2A",> 100 µM
same,IC50,human α2C‐adrenoceptor [2],> 100 µM
same,IC50,"human α2C‐adrenoceptor [2]; read-out: IC50 in binding, CHO‐α2C",> 100 µM
NC[C@H](O)c1ccc(O)c(O)c1 [Noradrenaline],"% 3 μM forskolin, CRE‐SPAP (without forskolin)","human α2A‐adrenoceptor [4]; CHO‐α2A (cell line 1), maximum response compared to 3 μM forskolin",171.5 ± 11.1%
same,IC50,human α2C‐adrenoceptor [1],0.309 µM
same,"% inhibition, CRE‐SPAP (with forskolin)",human α2C‐adrenoceptor [1]; [7],83.0 ± 3.1%
same,"Log EC50 (Gs), CRE‐SPAP (without forskolin)",human α2C‐adrenoceptor [1]; [8],No response
same,Kd,"human α2C‐adrenoceptor [2]; 3H‐rauwolscine whole cell binding, living cells, negative log KD, mean ± SEM, read-out: Log KD, CHO‐α2C (converted)",32.4 µM
same,Kd,"human α2C‐adrenoceptor [2]; CHO‐α2C cells, 3H‐rauwolscine whole cell binding, given as negative log KD, mean only (SEM in Table 4), read-out: Log KD (converted)",32.4 µM
same,"% 10 μM PDBu, ERK1/2‐phosphorylation","human α2A‐adrenoceptor [5]; CHO‐α2A, maximum response compared to 10 μM PDBu",121.9 ± 6.3%
same,"% 10 μM PDBu, ERK1/2‐phosphorylation",human α2C‐adrenoceptor [3]; [9],142.3 ± 10.7%
CC(Cc1ccc(O)cc1)NCC(O)c1cc(O)cc(O)c1 (stereo not shown) [Fenoterol],"Log EC50 (Gs), CRE‐SPAP (without forskolin)",human α2A‐adrenoceptor [4],No response
same,"Log IC50 (Gi), CRE‐SPAP (with forskolin)",human α2A‐adrenoceptor [4],No response
same,"Log EC50 (Gs), CRE‐SPAP (without forskolin)",human α2C‐adrenoceptor [1],No response
same,"Log IC50 (Gi), CRE‐SPAP (with forskolin)",human α2C‐adrenoceptor [1],No response
same,Kd,"human α2A‐adrenoceptor [6]; Log KD (apparent), CHO‐α2A",347 ± 5.01 µM
same,Kd,human α2A‐adrenoceptor [6]; Log KD (binding),347 µM
same,Kd,human α2C‐adrenoceptor [2]; Log KD,151 µM
same,Kd,"human α2C‐adrenoceptor [2]; Log KD (apparent), CHO‐α2C",151 µM

# Source: PMC9471048, “The signaling and selectivity of α‐adrenoceptor agonists for the human α2A, α2B and α2C‐adrenoceptors and comparison with human α1 and β‐adrenoceptors” (Pharmacology Research & Perspectives, 2022)
